Measurements: ChEMBL document CHEMBL1208791, “Optimization of alpha-ketoamide based p38 inhibitors through modifications to the region that binds to the allosteric site” (Bioorg Med Chem Lett, 2010)

What was measured:
[1] = biological target: T1, Mitogen-activated protein kinase 14 (Homo sapiens, UniProt Q16539); experiment: Inhibition of p38 alpha activity by ELISA
[2] = biological target: T1, Mitogen-activated protein kinase 14; experiment: Inhibition of phospho-p38 alpha activity by ELISA
[3] = Tmax in rat at 10 mg/kg, iv or 30 mg/kg, po; type: ADME, organism-based; settings: in vivo
[4] = AUC in rat at 10 mg/kg, iv or 30 mg/kg, po; type: ADME, organism-based; settings: plasma
[5] = Cmax in rat at 10 mg/kg, iv or 30 mg/kg, po; type: ADME, organism-based; settings: in vivo
[6] = Oral bioavailability in rat at 30 mg/kg, po; type: ADME, organism-based; settings: in vivo
[7] = Half life in rat at 10 mg/kg, iv or 30 mg/kg, po; type: ADME, organism-based; settings: in vivo
[8] = Clearance in rat at 10 mg/kg, iv or 30 mg/kg, po; type: ADME, organism-based; settings: in vivo
[9] = Volume of distribution at steady state in rat at 10 mg/kg, iv or 30 mg/kg, po; type: ADME, organism-based; settings: in vivo, read-out: Vdss
THP-1 = experiment: Inhibition of LPS-induced […]-alpha-production in immortalized human THP1 cells; type: functional, cell-based
Blood = experiment: Ex vivo inhibition of […]-alpha-production in human whole blood; type: functional, tissue-based

T1 sequence (Q16539 whole entry): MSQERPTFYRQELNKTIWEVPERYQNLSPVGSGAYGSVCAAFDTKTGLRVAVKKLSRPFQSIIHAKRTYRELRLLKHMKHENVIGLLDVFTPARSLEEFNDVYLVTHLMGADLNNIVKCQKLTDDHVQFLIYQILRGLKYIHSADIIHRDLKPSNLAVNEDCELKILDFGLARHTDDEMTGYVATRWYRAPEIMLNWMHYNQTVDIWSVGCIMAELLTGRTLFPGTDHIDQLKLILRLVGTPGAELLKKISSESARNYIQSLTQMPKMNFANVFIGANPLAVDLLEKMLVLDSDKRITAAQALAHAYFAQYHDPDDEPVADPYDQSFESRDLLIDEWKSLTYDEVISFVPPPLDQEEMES

Structure (SMILES)	IC50 [1] [nM]	IC50 [2] [nM]	other results
COc1c(C#N)cc(C(C)(C)C)cc1NC(=O)C(=O)c1ccc(-c2ccnc(C)c2)c2ccccc12	22		
COc1c(C#N)cc(C(C)(C)C)cc1NC(=O)C(=O)c1ccc(-c2cccnc2)c2ccccc12	78		
COc1c(NC(=O)C(=O)c2ccc(Nc3ccncc3)c3ccccc23)cc(C(C)(C)C)cc1NS(C)(=O)=O	25	2	
COc1c(NC(=O)C(=O)c2ccc(Oc3ccnc(N4CCOCC4)n3)c3ccccc23)cc(C(C)(C)C)cc1NS(C)(=O)=O	38	13	
COc1c(NC(=O)C(=O)c2ccc(Nc3ccncn3)c3ccccc23)cc(C(C)(C)C)cc1NS(C)(=O)=O	72	1	
CC(C)(C)c1cccc(NC(=O)C(=O)c2ccc(OCCN3CCOCC3)c3ccccc23)c1	250	310	
CC(C)(C)c1cc(C#N)cc(NC(=O)C(=O)c2ccc(OCCN3CCOCC3)c3ccccc23)c1	33		
COc1c(NC(=O)C(O)c2ccc(OCCN3CCOCC3)c3ccccc23)cc(C(C)(C)C)cc1NS(C)(=O)=O (centres undefined)	390		
COc1c(NC(=O)C(=O)c2ccc(OCCN3CCOCC3)c3ccccc23)cc(C(C)(C)C)cc1NS(C)(=O)=O [ITX-5061 FREE BASE]	59	38	Tmax [3]: 3 h; AUC [4]: 14000 ng·h/mL; Cmax [5]: 1300 ng/mL; bioavailability [6]: 77%; half-life [7]: 3.5 h; clearance [8]: 26.7 mL/min/kg; Vd [9]: 5.2 L/kg
COc1c(NC(=O)C(=O)c2ccc(OCCN3CCOCC3)c3ccccc23)cc(C(C)(C)C)cc1C(=O)NC1CC1	71	140	
COc1ccc(C(C)(C)C)cc1NC(=O)C(=O)c1ccc(OCCN2CCOCC2)c2ccccc12	250		
N#Cc1cc(NC(=O)C(=O)c2ccc(OCCN3CCOCC3)c3ccccc23)cc(N2CCOCC2)c1	28		
COc1c(C#N)cc(C(C)(C)C)cc1NC(=O)C(=O)c1ccc(-c2ccncc2)c2ccccc12	60		
COc1c(Cl)cc(C(C)(C)C)cc1NC(=O)C(=O)c1ccc(OCCN2CCOCC2)c2ccccc12	70		
COc1c(NC(=O)Cc2ccc(OCCN3CCOCC3)c3ccccc23)cc(C(C)(C)C)cc1NS(C)(=O)=O	190	90	
CNc1nccc(Nc2ccc(C(=O)C(=O)Nc3cc(C(C)(C)C)cc(NS(C)(=O)=O)c3OC)c3ccccc23)n1		21	IC50 (THP-1): 8 nM; IC50 (Blood): 100 nM
COc1c(C#N)cc(C(C)(C)C)cc1NC(=O)C(=O)c1ccc(Nc2ccncc2)c2ccccc12	51		IC50 (Blood): 150 nM
COc1c(C#N)cc(C(C)(C)C)cc1NC(=O)C(=O)c1ccc(-c2ccc(F)nc2)c2ccccc12	190		
COc1c(NC(=O)/C(=N/O)c2ccc(OCCN3CCOCC3)c3ccccc23)cc(C(C)(C)C)cc1NS(C)(=O)=O	200		
COc1c(C#N)cc(C(C)(C)C)cc1NC(=O)C(=O)c1ccc(OCCN2CCOCC2)c2ccccc12	42		Tmax [3]: 0.5 h; AUC [4]: 15000 ng·h/mL; Cmax [5]: 2400 ng/mL; bioavailability [6]: 57%; half-life [7]: 9.8 h; clearance [8]: 18.3 mL/min/kg; Vd [9]: 4.9 L/kg
